Source: US11266643B2, “Triaryl compounds for treatment of PD-L1 diseases” (CHEMOCENTRYX, INC., priority 2019, dated 2022)

Target: human PD-L1 (Homo sapiens (Human), UniProt Q9NZQ7)
Test: Enzyme-Linked Immunosorbent Assay (ELISA), PD-1/PD-L1 binding
Details: PD-1/PD-L1 ELISA, human PD-L1 coated plates, Table 1
Procedure, shortened: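 Plates coated with […] human PD-L1 overnight at 4° C, blocked, then 1:5 serial compound dilutions added with human PD-1 […] 0.31 μg/mL for 1 h at 37° C. Bound PD-1 detected with streptavidin-HRP and TMB (20 min, 37° C); absorbance read at 450 nm after H2SO4 stop.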

Sequence of human PD-L1 (Q9NZQ7 19-239): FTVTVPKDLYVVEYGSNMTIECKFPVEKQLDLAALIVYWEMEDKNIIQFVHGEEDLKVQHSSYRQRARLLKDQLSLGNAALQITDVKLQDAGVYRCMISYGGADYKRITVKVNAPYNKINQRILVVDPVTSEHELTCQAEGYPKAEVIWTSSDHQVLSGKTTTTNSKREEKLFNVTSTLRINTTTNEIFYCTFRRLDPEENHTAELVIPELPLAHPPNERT

| Structure (SMILES) | IC50 |
| --- | --- |
| COc1cc(-c2cccc(-c3cccc(Nc4cccc5ccn(C)c(=O)c45)c3C)c2C)cc(F)c1CN1CC(C(=O)O)C1 [Example 1.284] | 10 to 1000 nM |
| COc1cc(-c2cccc(-c3cccc(Nc4cccc5ncn(C)c(=O)c45)c3C)c2C)cc(F)c1CN1CC(C(=O)O)C1 [Example 1.287] | < 10 nM |
| COc1cc(-c2cccc(-c3cccc(NC(=O)c4cccn(CC(N)=O)c4=O)c3C)c2C)cc(F)c1CN [Example 1.288] | 10 to 1000 nM |
| COc1cc(-c2cccc(-c3cccc(NC(=O)c4cccn(C)c4=O)c3C)c2C)cc(F)c1CN[C@@](C)(CO)C(=O)O [Example 1.289] | 10 to 1000 nM |
| COc1cc(-c2cccc(-c3cccc(NC(=O)c4cccn(C)c4=O)c3C)c2C)cc(F)c1CNCC(=O)O [Example 1.290] | < 10 nM |
| COc1cc(-c2cccc(-c3cccc(NC(=O)c4cccn(CC(=O)O)c4=O)c3C)c2C)cc(F)c1CN [Example 1.291] | 1000 to 10000 nM |
| COc1cc(-c2cccc(-c3cccc(NC(=O)c4cccn(C)c4=O)c3C)c2C)cc(F)c1CNCCO [Example 1.300] | < 10 nM |
| COc1cc(-c2cccc(-c3cccc(NC(=O)c4cccn(C)c4=O)c3C)c2C)cc(F)c1CN1CC(C(=O)O)C1 [Example 1.301] | < 10 nM |
| COc1cc(-c2cccc(-c3cccc(NC(=O)c4ccc(C(=O)NCC(=O)O)cn4)c3C)c2C)cc(F)c1CN [Example 1.305] | < 10 nM |
| COc1cc(-c2cccc(-c3cccc(NC(=O)c4ccc(C(=O)N(C)C)cn4)c3C)c2C)cc(F)c1CN [Example 1.306] | < 10 nM |
| COc1cc(-c2cccc(-c3cccc(NC(=O)c4cnc(CC(N)=O)cn4)c3C)c2C)cc(F)c1CN [Example 1.307] | < 10 nM |
| COc1cc(-c2cccc(-c3cccc(NC(=O)c4cnc(CC(=O)O)cn4)c3C)c2C)cc(F)c1CN [Example 1.309] | < 10 nM |
| COc1cc(-c2cccc(-c3cccc(NC(=O)c4ccc(CC(N)=O)cn4)c3C)c2C)cc(F)c1CN [Example 1.310] | < 10 nM |
| COc1cc(-c2cccc(-c3cccc(NC(=O)C4CN(C)CCO4)c3C)c2C)cc(F)c1CN (stereo not drawn) [Example 1.315] | 10 to 1000 nM |
| COc1cc(-c2cccc(-c3cccc(Nc4nccc5cccnc45)c3C)c2C)cc(F)c1CN1CC(C(=O)O)C1 [Example 1.318] | 10 to 1000 nM |
| COc1cc(-c2cccc(-c3cccc(NC(=O)[C@H]4COCCN4)c3C)c2C)cc(F)c1CN [Example 1.319] | 10 to 1000 nM |
| COc1cc(-c2cccc(-c3cccc(NC(=O)c4ccnc(C)n4)c3C)c2C)cc(F)c1CN1CC(C(=O)O)C1 [Example 1.321] | < 10 nM |
| COc1cc(-c2cccc(-c3cccc(NC(=O)C4CNCCO4)c3C)c2C)cc(F)c1CNCCO (stereo not drawn) [Example 1.324] | 10 to 1000 nM |
| COc1cc(-c2cccc(-c3cccc(NC(=O)c4cncc(N)n4)c3C)c2C)cc(F)c1CN1CC(C(=O)O)C1 [Example 1.327] | < 10 nM |

| Structure (SMILES) | IC50 |
| --- | --- |
| COC(=O)Cc1ccc(C(=O)Nc2cccc(-c3cccc(-c4cc(F)c(CN)c(OC)c4)c3C)c2C)nc1 [Example 1.331] | < 10 nM |
| COc1cc(-c2cccc(-c3cccc(NC(=O)c4ccc(C(=O)O)cn4)c3C)c2C)cc(F)c1CNCCO [Example 1.333] | 10 to 1000 nM |
| COC(=O)c1ccc(C(=O)Nc2cccc(-c3cccc(-c4cc(F)c(CNCCO)c(OC)c4)c3C)c2C)nc1 [Example 1.334] | 10 to 1000 nM |
| COc1cc(-c2cccc(-c3cccc(NC(=O)c4ccc(CC(=O)O)cn4)c3C)c2C)cc(F)c1CN [Example 1.335] | 10 to 1000 nM |
| COc1cc(-c2cccc(-c3cccc(NC(=O)c4ccncn4)c3C)c2C)cc(F)c1CN1CC(O)C1 [Example 1.337] | < 10 nM |
| COc1cc(-c2cccc(-c3cccc(NC(=O)c4ccncn4)c3C)c2C)cc(F)c1CN1CC(C)(C(=O)O)C1 [Example 1.340] | < 10 nM |
| COc1cc(-c2cccc(-c3cccc(NC(=O)C4CCCO4)c3C)c2C)cc(F)c1CN1CC(C(=O)O)C1 (stereo not drawn) [Example 1.341] | 10 to 1000 nM |
| COc1cc(-c2cccc(-c3cccc(NC(=O)c4ccc(CO)cn4)c3C)c2C)cc(F)c1CN1CC(C(=O)O)C1 [Example 1.342] | < 10 nM |
| COc1cc(-c2cccc(-c3cccc(NC(=O)c4ccncn4)c3C)c2C)cc(F)c1CNCCCC(=O)O [Example 1.345] | < 10 nM |
| COc1cc(-c2cccc(-c3cccc(NC(=O)c4nccs4)c3C)c2C)cc(F)c1CN1CC(C(=O)O)C1 [Example 1.346] | 10 to 1000 nM |
| COc1cc(-c2cccc(-c3cccc(NC(=O)C4CCCCN4)c3C)c2C)cc(F)c1CN1CC(C(=O)O)C1 (stereo not drawn) [Example 1.350] | 1000 to 10000 nM |
| COc1cc(-c2cccc(-c3cccc(NC(=O)c4ccc(C(=O)O)cn4)c3C)c2C)cc(F)c1CN [Example 1.352] | 10 to 1000 nM |
| COc1cc(-c2cccc(-c3cccc(NC(=O)c4ccccn4)c3C)c2C)cc(F)c1CN1CCC[C@H](C(=O)O)C1 [Example 1.355] | 10 to 1000 nM |
| COc1cc(-c2cccc(-c3cccc(NC(=O)c4cnccn4)c3C)c2C)cc(F)c1CN1CC(C(=O)O)C1 [Example 1.357] | < 10 nM |
| COc1cc(-c2cccc(-c3cccc(NC(=O)c4ccccn4)c3C)c2C)cc(F)c1CN1CCC(C(=O)O)CC1 [Example 1.358] | 10 to 1000 nM |
| COc1cc(-c2cccc(-c3cccc(NC(=O)c4ncc(C)cn4)c3C)c2C)cc(F)c1CN1CC(C(=O)O)C1 [Example 1.364] | 10 to 1000 nM |
| COc1cc(-c2cccc(-c3cccc(NC(=O)c4ccccn4)c3C)c2Cl)cc(F)c1CN1CC(C(=O)O)C1 [Example 1.365] | < 10 nM |
| COc1cc(-c2cccc(-c3cccc(NC(=O)c4ccncn4)c3C)c2C)cc(F)c1CN1CC(C(=O)O)C1 [Example 1.367] | < 10 nM |
| COc1cc(-c2cccc(-c3cccc(NC(=O)c4ccccn4)c3C)c2C)cc(F)c1CN1CC[C@H](C(=O)O)C1 [Example 1.368] | 10 to 1000 nM |

The remaining lines, values ahead:

| IC50 | Structure (SMILES) |
| --- | --- |
| < 10 nM | COc1cc(-c2cccc(-c3cccc(NC(=O)c4ccc(C(=O)NCCO)cn4)c3C)c2C)cc(F)c1CN1CC(C(=O)O)C1 [Example 1.285] |
| < 10 nM | COc1cc(-c2cccc(-c3cccc(NC(=O)c4ccc(OCC(N)=O)cn4)c3C)c2C)cc(F)c1CN [Example 1.296] |
| 10 to 1000 nM | COc1cc(-c2cccc(-c3cccc(NC(=O)c4cccnc4O)c3C)c2C)cc(F)c1CN [Example 1.297] |
| < 10 nM | COc1cc(-c2cccc(-c3cccc(NC(=O)c4ncc(C(N)=O)cn4)c3C)c2C)cc(F)c1CN [Example 1.299] |
| 1000 to 10000 nM | COc1cc(-c2cccc(-c3cccc(NC(=O)c4cc(C(=O)O)[nH]n4)c3C)c2C)cc(F)c1CN [Example 1.304] |
| < 10 nM | COc1cc(-c2cccc(-c3cccc(NC(=O)c4cccn(C)c4=O)c3C)c2C)cc(F)c1CN [Example 1.311] |
| 10 to 1000 nM | COc1cc(-c2cccc(-c3cccc(NC(=O)C4CN(CC(=O)O)CCO4)c3C)c2C)cc(F)c1CN (stereo not drawn) [Example 1.314] |
| < 10 nM | COc1cc(-c2cccc(-c3cccc(NC(=O)c4cc(N)ncn4)c3C)c2C)cc(F)c1CN1CC(C(=O)O)C1 [Example 1.320] |
| < 10 nM | COc1cc(-c2cccc(-c3cccc(NC(=O)c4cnc(C(=O)O)cn4)c3C)c2C)cc(F)c1CN [Example 1.322] |
| 10 to 1000 nM | COc1cc(-c2cccc(-c3cccc(NC(=O)C4CNCCO4)c3C)c2C)cc(F)c1CN (stereo not drawn) [Example 1.323] |
| < 10 nM | COc1cc(-c2cccc(-c3cccc(NC(=O)c4cnc(CO)cn4)c3C)c2C)cc(F)c1CN1CC(C(=O)O)C1 [Example 1.326] |
| < 10 nM | COc1cc(-c2cccc(-c3cccc(NC(=O)c4cnc(N)cn4)c3C)c2C)cc(F)c1CN1CC(C(=O)O)C1 [Example 1.332] |
| 1000 to 10000 nM | COc1cc(-c2cccc(-c3cccc(NC(=O)C4CCCO4)c3C)c2C)cc(F)c1CN[C@@](C)(CO)C(=O)O (stereo partly drawn) [Example 1.336] |
| < 10 nM | COc1cc(-c2cccc(-c3cccc(NC(=O)c4ccncn4)c3C)c2C)cc(F)c1CNCCO [Example 1.338] |
| 10 to 1000 nM | COc1cc(-c2cccc(-c3cccc(NC(=O)c4ccncn4)c3C)c2C)cc(F)c1CNCC(=O)O [Example 1.339] |
| 10 to 1000 nM | COc1cc(-c2cccc(-c3cccc(NC(=O)c4ccccn4)c3C)c2C)cc(F)c1C(C)N (stereo not drawn) [Example 1.344] |
| 10 to 1000 nM | COc1cc(-c2cccc(-c3cccc(NC(=O)c4ccnc(N)n4)c3C)c2C)cc(F)c1CN1CC(C(=O)O)C1 [Example 1.347] |
| 10 to 1000 nM | COc1cc(-c2cccc(-c3cccc(NC(=O)c4ccccn4)c3C)c2F)cc(F)c1CN1CC(C(=O)O)C1 [Example 1.348] |
| 10 to 1000 nM | COc1cc(-c2cccc(-c3cccc(NC(=O)c4ncco4)c3C)c2C)cc(F)c1CN1CC(C(=O)O)C1 [Example 1.349] |
| < 10 nM | COc1ccc(C(=O)Nc2cccc(-c3cccc(-c4cc(F)c(CN5CC(C(=O)O)C5)c(OC)c4)c3C)c2C)nc1 [Example 1.351] |
| 10 to 1000 nM | COC(=O)c1ccc(C(=O)Nc2cccc(-c3cccc(-c4cc(F)c(CN)c(OC)c4)c3C)c2C)nc1 [Example 1.353] |
| 10 to 1000 nM | COc1cc(-c2cccc(-c3cccc(NC(=O)c4ccccn4)c3C)c2C)cc(F)c1CN1CCC[C@@H](C(=O)O)C1 [Example 1.354] |
| 10 to 1000 nM | COc1cc(-c2cccc(-c3cccc(NC(=O)c4ccccn4)c3C)c2C#N)cc(F)c1CN1CC(C(=O)O)C1 [Example 1.356] |
| 10 to 1000 nM | COc1cc(-c2cccc(-c3cccc(NC(=O)c4ccc(F)cn4)c3C)c2C)cc(F)c1CN1CC(C(=O)O)C1 [Example 1.359] |
| < 10 nM | COc1cc(-c2cccc(-c3cccc(NC(=O)c4ccccn4)c3C)c2C)cc(F)c1CN1CC(C)(C(=O)O)C1 [Example 1.360] |
| 10 to 1000 nM | COc1cc(-c2cccc(-c3cccc(NC(=O)c4ccccn4)c3C)c2C)cc(F)c1CN1CCC2(C1)NC(=O)NC2=O (stereo not drawn) [Example 1.362] |
| 10 to 1000 nM | COc1cc(-c2cccc(-c3cccc(NC(=O)C4CCCCO4)c3C)c2C)cc(F)c1CN (stereo not drawn) [Example 1.363] |
| < 10 nM | COc1cc(-c2cccc(-c3cccc(NC(=O)c4ccccn4)c3C)c2C)cc(F)c1CN1CC[C@@H](C(=O)O)C1 [Example 1.366] |
